Experimental data as given in patent publication EP0409410B1, “Indenoindole compounds” (UNIVERSITY OF BATH, priority 1989, dated 1991).

Legend:
[1] = system: ascorbate/Fe²⁺-dependent lipid peroxidation; test: Ascorbate/Fe²⁺-dependent lipid peroxidation (2-thiobarbituric acid-reactive material); type: biochemical; conditions: concentration required to inhibit lipid peroxidation by 50%; 200 µg/ml soy bean phospholipid, 10 µM iron, 100 µM ascorbic acid, 0.1 M KPi pH 7.4, room temperature, 30 min
Description: (§1) The most remarkable feature of the compounds of the invention is their efficacy as free-radical scavengers or antioxidants. An assay system measuring the concentration of the compounds of formulas (IA) and (IB) required to inhibit lipid peroxidation by 50% (IC₅₀) was used. Other assays described below are the red blood cell fragility test used for measuring membrane stabilisation by indenoindoles (Table 2), and protection by indenoindoles against cytotoxicity of N-methyl-N¹-nitro-N-nitrosoguanidine (MNNG) in rat hepatocytes (Table 3). MNNG is a highly cytotoxic agent, the mechanism of action of which may involve a radical-mediated membrane destabilization.
For the ferrous/ascorbate lipid peroxidation system, 6.25 ml of 0.1 M potassium phosphate buffer (KPi), pH 7.4, was added to 12.5 mg dried soy bean phospholipids. After flushing with argon for 2 min, the suspension was sealed with five layers of Parafilm and sonicated until the suspension was translucent. The final reaction mixture was composed of 200 µg/ml phospholipid, 10 µM FeNH₄ (SO₄)₂ or Fe(NH₄)₂(SO₄)₂, and 100 µM ascorbic acid in 0.1 M KPi (pH 7.4), and the antioxidant to be tested in acetone or DMSO. The volume of vehicle never exceeded 1% of the total volume. The reaction was initiated by the addition of ascorbic acid plus iron. The reaction was continued at room temperature in a shaking water bath for 30 min and then stopped by the addition of […] of 0.5 M butylated hydroxytoluene in DMSO. The above procedure and the subsequent determination of 2-thiobarbituric acid-reactive material is described in: Shertzer, H.G. et al, Biochem. Pharmacol. 37, 333 (1988). […]

[2] = system: red blood cells; test: Red blood cell fragility test (membrane stabilization, protection from osmolysis); type: cell-based, Rats; conditions: red blood cell fragility protective index value: linear regression slope, percentage protection against osmolysis per µM protecting agent; rat blood, absorbance at 656 nm
Description: as §1
The membrane stabilization effect of indenoindoles was assayed by the red blood cell fragility test. Rats were anesthesized With 65 mg pentobarbital per kg body weight by i.p. injection. Blood samples were removed into a heparinized syringe from the left ventricle and diluted 20-fold with buffer containing 140 mM NaCl, 10 mM sodium citrate and 5 mM glucose (pH 7.4) at 0°C. Diluted blood was kept on ice. A 0.75 ml aliquot of blood was added to a 4 ml cuvette containing 10 µl DMSO or 10 µl of the antioxidant dissolved in DMSO vehicle. After 1 min of gentle swirling, 0.75 ml of 0.9 % NaCl or H₂O were added to the cuvette by forceful pipetting, and the absorbance at 656 nm was recorded with a Beckman DU-70 spectrophotometer. When H₂O was added in the absence of a stabilizing agent, absorbance decreased wtihin 15 sec to 0.8. Addition of NaCl instead of H₂O gave a time-independent absorbance of 2.2. In the presence of increasing concentrations of stabilizing chemicals, the absorbance decrease observed after the addition of water was diminished. The % protection from osmolysis was obtained from the equation [E(2.2- 0.8) - A/2.2-0.8)] x 100% [formula] , where A=2.2 minus the absor bance decrease when water is added in the presence of a known concentration of chemical. The % protection is then plotted against several concentrations of the chemical being treated. The red blood cell fragility protective index value (RBC-PIV) is the linear regression slope of this plot, expressed as the percentage protection against osmolysis per µM protecting agent. […]

[3] = system: rat hepatocytes; test: Protection against cytotoxic effects of MNNG in hepatocytes (trypan blue exclusion); type: cell-based, male Sprague-Dawley rats; conditions: Hepatocyte, concentration of compound required to extend by 1 hour the time needed for MNNG (0.5 mM) to kill 50 % of the viable cells, read-out: IC₅₀
Description: as §1
The protective effects of indenoindoles on MNNG-induced cytotoxicity was assayed with rat hepatocytes. Hepatocytes were prepared from male Sprague-Dawley rats by collagenase treatment as originally described by Zahlten and Stratman (Zahlten, R.N. and Stratman, F.W., Arch. Biochem. Biophys. 163, 600 (1988)), as modified by Reitman et al (Reitman, F.A., Shertzer, H.G. and Berger, M.L., Biochem. Pharmacol. 37,3183 (1988)). In order to improve viability, cells were centrifuged through 0.508 g/ml Percoll (Pharmacia AB, Uppsala, Sweden) in 137 mM NaCl, 8.1 mM Na₂HPO₄ and 1.5 mM KH₂PO₄ (pH 7.4). Putative protecting agents were added to the cells as solutions in DMSO, with the final concentration of DMSO never exceeding 5 µl/ml of cell suspension. MNNG was added to a concentration of 0.5 mM as a solution in ethanol, giving a final concentration of ethanol of 1%; ethanol alone was by itself without effect. Viability was determined as the percentage of cells that excluded 0.2 % trypan blue. Values are the concentration of compound required to extend by 1 hour the time needed for MNNG to kill 50 % of the viable cells.

Structure (SMILES) | pIC₅₀ [1] | RBC-PIV [2] | IC50 [3]
COc1ccc2c(c1)[C@H]1Cc3c(cc(C)c(OC)c3C)[C@H]1N2 (relative stereo) [2,8-Dimethoxy-1,3,dimethyl-THII, cis-4b,5,9b,10-Tetrahydro-2,8-dimethoxy-1,3-dimethylindeno[1,2-b]indole] | 8.1 |  | 
CCN(CC)c1ccc2c(c1)C[C@@H]1c3ccccc3N[C@H]21 (relative stereo) [2-Diethylamino-THII, cis-4b,5,9b,10-Tetrahydro-2-(N,N-Diethylamino)-indeno[1,2-b]indole] | 7.2 |  | 
Cc1cc2c(c(C)c1O)C[C@@H]1c3ccccc3N[C@H]21 (relative stereo) [2-Hydroxy-1,3-dimethyl-THII, cis-4b,5,9b,10-Tetrahydro-2-hydroxy-1,3-dimethylindeno[1,2-b]indole] | 7.9 |  | 
COc1c(C)cc2c(c1C)C[C@@H]1c3ccccc3N[C@H]21 (relative stereo) [2-Methoxy-1,3-dimethyl-THII, cis-4b,5,9b,10-Tetrahydro-2-methoxy-1,3-dimethylindeno[1,2-b]indole] | 7.2 |  | 
Cc1ccc2c(c1)[C@@]1(C)Cc3ccccc3[C@@]1(C)N2C (relative stereo) [4b,5,8,9b-Tetramethyl-THII, cis-4b,5,9b,10-tetrahydro-4b,5,8,9b-tetramethylindeno[1,2-b]indole] | 6.8 |  | 
Cc1cc(C)c2c(c1)[C@@]1(C)Cc3ccccc3[C@@]1(C)N2 (relative stereo) [4b,6,8,9b-Tetramethyl-THII, cis-4b,5,9b,10-Tetrahydro-4b,6,8,9b-tetramethylindeno[1,2-b]indole] | 7.4 |  | 
Cc1ccc2c(c1)[C@@]1(C)Cc3ccccc3[C@@]1(C)N2 (relative stereo) [4b,8,9b-Trimethyl-THII, cis 4b,5,9b,10-Tetrahydro-4b,8,9b-trimethylindeno[1,2-b]indole] | 7.6 |  | 
CN1c2ccccc2[C@H]2Cc3ccccc3[C@H]21 (relative stereo) [5-Methyl-THII, cis-4b,5,9b,10-Tetrahydro-5-methylindeno[1,2-b]indole] | 6.1 | 0.64 %/µM | 2.2 µM
Cc1cc(C)c2c(c1)[C@H]1Cc3ccccc3[C@H]1N2 (relative stereo) [6,8-Dimethyl-THII, cis-4b,5,9b,10-Tetrahydro-6,8-dimethylindeno[1,2-b]indole] | 7.3 |  | 
Fc1ccc2c(c1)[C@H]1Cc3ccccc3[C@H]1N2 (relative stereo) [8-Fluoro-THII, cis-4b,5,9b,10-Tetrahydro-8-fluoroindeno[1,2-b]indole] | 7.5 |  | 
CC(C)c1ccc2c(c1)[C@@]1(C)Cc3ccccc3[C@@]1(C)N2 (relative stereo) [8-Isopropyl-4b,9b-dimethyl, cis-4b,5,9b,10-Tetrahydro-4b,9b-dimethyl-8-isopropylindeno[1,2-b]indole] | 7.7 |  | 
CC(C)c1ccc2c(c1)[C@H]1Cc3ccccc3[C@@]1(C)N2 (relative stereo) [8-Isopropyl-4b-methyl-THII, cis-4b,5,9b,10-Tetrahydro-4b-methyl-8-isopropylindeno-[1,2-b]indole] | 7.7 |  | 
CC(C)c1ccc2c(c1)[C@H]1Cc3ccccc3[C@H]1N2 (relative stereo) [8-Isopropyl-THII, cis-4b,5,9b,10-Tetrahydro-8-iso-propylindeno[1,2-b]indole] | 7.3 |  | 
COc1cc(C)c2c(c1)[C@H]1Cc3ccccc3[C@H]1N2 (relative stereo) [8-Methoxy-6-methyl-THII, cis-4b,5,9b,10-Tetrahydro-8-methoxy 6-methylindeno[1,2-b]indole] | 8.0 |  | 
COc1ccc2c(c1)[C@H]1Cc3ccccc3[C@H]1N2 (relative stereo) [8-Methoxy-THII, cis-4b,5,9b,10-Tetrahydro-8-methoxyindeno[1,2-b]indole] |  | 0.21 %/µM | 
Cc1ccc2c(c1)[C@H]1Cc3ccccc3[C@H]1N2 (relative stereo) [8-Methyl-THII, cis-4b,5,9b,10-Tetrahydro-8 methylindeno[1,2-b]indole] | 7.1 |  | 
CC(C)c1ccc2c(c1)[C@@H]1c3ccccc3C[C@@H]1N2 (relative stereo) [9-Isopropyl-iso-THII, cis-5,5a,6,10b-Tetrahydro-9-isopropylindeno[2,1-b]indole] | 7.4 |  | 
COc1ccc2c(c1)[C@@H]1c3ccccc3C[C@@H]1N2 (relative stereo) [9-Methoxy-iso-THII, cis-5,5a,6,10b-Tetrahydro-9-methoxyindeno[2,1-b]indole] | 7.7 |  | 
CC1(C)c2ccccc2[C@H]2Nc3ccccc3[C@H]21 (relative stereo) [10,10-Dimethyl-THII, cis-4b,5,9b,10-Tetrahydro-10,10-dimethylindeno [1,2-b] indole] | 6.9 |  | 
c1ccc2c(c1)C[C@@H]1c3ccccc3N[C@H]21 (relative stereo) [THII, cis-4b,5,9b,10-Tetrahydroindeno[1,2-b]indole] | 6.9 | 0.41 %/µM | 2.2 µM
c1ccc2c(c1)C[C@H]1Nc3ccccc3[C@@H]21 (relative stereo) [iso-THII, cis-5,5a,6,10b-Tetrahydroindeno[2,1-b]indole] | 6.9 | 0.38 %/µM | 2 µM
CC12Cc3ccccc3C1(C)Nc1ccccc12 (stereo not drawn) [4b,9b-Dimethyl-THII, cis-4b,5,9b,10-Tetrahydro-4b,9b-dimethylindenol[1.2-b]indole] | 7.2 |  | 
CC12Nc3ccccc3C1Cc1ccccc12 (stereo not drawn) [4b-Methyl-THII, cis-4b,5,9b,10-Tetrahydro-4b-methylindeno[1,2-b]inole] | 7.1 |  | 
Cc1ccc2c(c1)C1Cc3ccccc3C1N2C (stereo not drawn) [5,8-Dimethyl-THII, cis-4b,5,9b,10-Tetrahydro-5,8-dimethylindenol[1,2-b]indole] | 6.4 |  | 
CN1c2ccccc2[C@H]2c3ccccc3C[C@H]21 [6-Methyl-iso-THII, cis-5,5a,6,10b-Tetrahydro-methylindeno[2.1-b]indole] | 6.1 |  | 
CCN(CC)c1ccc2c(c1)C1Cc3ccccc3C1N2CC (stereo not drawn) [8-Diethylamino-5-ethyl-THII, cis-4b,5,9b,10-Tetrahydro-5-ethyl-8-(N.N-diethylamino)-indeno[1,2-b]indole] | 7.1 |  | 
COc1ccc2c(c1)C1Cc3ccccc3C1N2C (stereo not drawn) [8-Methoxy-5-methyl-THII, cis-4b.5.9b,10-Tetrahydro-8-methoxy-5-methylindeno[1,2-b]indole] | 7.0 |  | 
CC12Cc3ccccc3C1Nc1ccccc12 (stereo not drawn) [9b-Methyl-THII, cis-4b,5,9b,10-Tetrahydro-9b-methylindeno [1.2-b]-indole] | 7.0 |  | 
Cc1c(C)c2c(c(C)c1O)CCC(C)(CCCC(C)CCCC(C)CCCC(C)C)O2 (stereo not drawn) [α-Tocopherol (Vitamin E), α-Tocopherol, reference compound] | 5.0 | 0.10 %/µM | 
CC(=O)Oc1c(C)c(C)c2c(c1C)CCC(C)(CCCC(C)CCCC(C)CCCC(C)C)O2 (stereo not drawn) [α-Tocopheryl-acetate, reference compound] |  |  | 161 µM
